# Calls of active or inactive are those of the source. The rule behind the calls is not given here.
# Experiments:
# MDA-MB-231 = experiment: Growth inhibition of human MDA-MB-231 cells at 10 uM after 48 hrs; format: functional
# U-251 = experiment: Growth inhibition of human U251 cells at 10 uM after 48 hrs; format: functional
# SF-295 = experiment: Growth inhibition of human SF295 cells at 10 uM after 48 hrs; format: functional
# Dihydrofolate reductase = molecular target: T1, Dihydrofolate reductase (Bos taurus, UniProt P00376); experiment: Inhibition of bovine liver DHFR
# T1 sequence (P00376 whole entry): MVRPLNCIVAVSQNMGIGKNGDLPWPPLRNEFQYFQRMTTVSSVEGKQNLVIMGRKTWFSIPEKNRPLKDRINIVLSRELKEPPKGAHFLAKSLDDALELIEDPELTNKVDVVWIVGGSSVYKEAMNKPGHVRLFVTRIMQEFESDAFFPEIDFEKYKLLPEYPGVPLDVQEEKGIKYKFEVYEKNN
# Candida albicans = experiment: Antimicrobial activity against Candida albicans assessed as inhibition zone at 200 ug/disk after 24 hrs by disc-diffusion method; format: functional; conditions: read-out: IZ
# SK-MEL-5 = experiment: Growth inhibition of human SK-MEL-5 cells at 10 uM after 48 hrs; format: functional
# 786-0 = experiment: Growth inhibition of human 786-0 cells at 10 uM after 48 hrs; format: functional
# NCI-H226 = experiment: Growth inhibition of human NCI-H226 cells at 10 uM after 48 hrs; format: functional
# PC-3 = experiment: Growth inhibition of human PC3 cells at 10 uM after 48 hrs; format: functional
# MDA-MB-435 = experiment: Growth inhibition of human MDA-MB-435 cells at 10 uM after 48 hrs; format: functional
# RXF 393 = experiment: Growth inhibition of human RXF393 cells at 10 uM after 48 hrs; format: functional
# RPMI-8226 = experiment: Growth inhibition of human RPMI8226 cells at 10 uM after 48 hrs; format: functional
# HL-60(TB) = experiment: Growth inhibition of human HL-60(TB) cells at 10 uM after 48 hrs; format: functional
# HT-29 = experiment: Growth inhibition of human HT-29 cells at 10 uM after 48 hrs; format: functional
# SK-MEL-28 = experiment: Growth inhibition of human SK-MEL-28 cells at 10 uM after 48 hrs; format: functional, cell-based
# Staphylococcus aureus = experiment: Antimicrobial activity against Staphylococcus aureus assessed as inhibition zone at 200 ug/disk after 24 hrs by disc-diffusion method; format: functional; conditions: read-out: IZ
# MOLT-4 = experiment: Growth inhibition of human MOLT4 cells at 10 uM after 48 hrs; format: functional
# Bacillus subtilis = experiment: Antimicrobial activity against Bacillus subtilis assessed as inhibition zone at 200 ug/disk after 24 hrs by disc-diffusion method; format: functional; conditions: read-out: IZ
# HCT-116 = experiment: Growth inhibition of human HCT116 cells at 10 uM after 48 hrs; format: functional
# Escherichia coli = experiment: Antimicrobial activity against Escherichia coli assessed as inhibition zone at 200 ug/disk after 24 hrs by disc-diffusion method; format: functional; conditions: read-out: IZ
# HOP-62 = experiment: Growth inhibition of human HOP62 cells at 10 uM after 48 hrs; format: functional
# A549 = experiment: Growth inhibition of human A549 cells at 10 uM after 48 hrs; format: functional
# Pseudomonas aeruginosa = experiment: Antimicrobial activity against Pseudomonas aeruginosa assessed as inhibition zone at 200 ug/disk after 24 hrs by disc-diffusion method; format: functional; conditions: read-out: IZ
# MDA-MB-468 = experiment: Growth inhibition of human MDA-MB-468 cells at 10 uM after 48 hrs; format: functional
# UACC-62 = experiment: Growth inhibition of human UACC62 cells at 10 uM after 48 hrs; format: functional
# CAKI-1 = experiment: Growth inhibition of human CAKI-1 cells at 10 uM after 48 hrs; format: functional
# KM12 = experiment: Growth inhibition of human KM12 cells at 10 uM after 48 hrs; format: functional
# HCT-15 = experiment: Growth inhibition of human HCT15 cells at 10 uM after 48 hrs; format: functional
# HOP-92 = experiment: Growth inhibition of human HOP92 cells at 10 uM after 48 hrs; format: functional
# NCI-H522 = experiment: Growth inhibition of human NCI-H522 cells at 10 uM after 48 hrs; format: functional
# A498 = experiment: Growth inhibition of human A498 cells at 10 uM after 48 hrs; format: functional
# SR = experiment: Growth inhibition of human SR cells at 10 uM after 48 hrs; format: functional
# SNB-19 = experiment: Growth inhibition of human SNB19 cells at 10 uM after 48 hrs; format: functional
# Malme-3M = experiment: Growth inhibition of human MALME-3M cells at 10 uM after 48 hrs; format: functional
# Hs-578T = experiment: Growth inhibition of human Hs 578T cells at 10 uM after 48 hrs; format: functional
# CCRF-CEM = experiment: Growth inhibition of human CCRF-CEM cells at 10 uM after 48 hrs; format: functional
# T47D = experiment: Growth inhibition of human T47D cells at 10 uM after 48 hrs; format: functional
# SF-539 = experiment: Growth inhibition of human SF539 cells at 10 uM after 48 hrs; format: functional
# UACC-257 = experiment: Growth inhibition of human UACC257 cells at 10 uM after 48 hrs; format: functional
# OVCAR-4 = experiment: Growth inhibition of human OVCAR4 cells at 10 uM after 48 hrs; format: functional
# K562 = experiment: Growth inhibition of human K562 cells at 10 uM after 48 hrs; format: functional
# MCF7 = experiment: Growth inhibition of human MCF7 cells at 10 uM after 48 hrs; format: functional
# UO-31 = experiment: Growth inhibition of human UO31 cells at 10 uM after 48 hrs; format: functional
smiles,measurement,setting,value
COc1ccc(-n2c(Sc3nnc(N)s3)nc3ccc(C)cc3c2=O)cc1,growth inhibition (GI),MDA-MB-231,inactive
same,growth inhibition (GI),U-251,inactive
same,growth inhibition (GI),SF-295,inactive
same,IC50,Dihydrofolate reductase,3 µM
same,zone of inhibition at 200 µg/disc,Candida albicans,8 mm
same,growth inhibition (GI),SK-MEL-5,inactive
same,growth inhibition (GI),786-0,inactive
same,growth inhibition (GI),NCI-H226,inactive
same,growth inhibition (GI),PC-3,inactive
same,growth inhibition (GI),MDA-MB-435,inactive
same,growth inhibition (GI),RXF 393,inactive
same,growth inhibition (GI),RPMI-8226,inactive
same,growth inhibition (GI),HL-60(TB),inactive
same,growth inhibition (GI),HT-29,inactive
same,growth inhibition (GI),SK-MEL-28,inactive
same,zone of inhibition at 200 µg/disc,Staphylococcus aureus,8 mm
same,growth inhibition (GI),MOLT-4,inactive
same,zone of inhibition at 200 µg/disc,Bacillus subtilis,8 mm
same,growth inhibition (GI),HCT-116,inactive
same,zone of inhibition at 200 µg/disc,Escherichia coli,8 mm
same,growth inhibition (GI),HOP-62,inactive
same,growth inhibition (GI),A549,inactive
same,zone of inhibition at 200 µg/disc,Pseudomonas aeruginosa,8 mm
same,growth inhibition (GI),MDA-MB-468,inactive
same,growth inhibition (GI),UACC-62,inactive
same,growth inhibition (GI),CAKI-1,inactive
same,growth inhibition (GI),KM12,inactive
same,growth inhibition (GI),HCT-15,inactive
same,growth inhibition (GI),HOP-92,inactive
same,growth inhibition (GI),NCI-H522,inactive
same,growth inhibition (GI),A498,inactive
same,growth inhibition (GI),SR,inactive
same,growth inhibition (GI),SNB-19,inactive
same,growth inhibition (GI),Malme-3M,inactive
same,growth inhibition (GI),Hs-578T,inactive
same,growth inhibition (GI),CCRF-CEM,inactive
same,growth inhibition (GI),T47D,inactive
same,growth inhibition (GI),SF-539,inactive
same,growth inhibition (GI),UACC-257,inactive
same,growth inhibition (GI),OVCAR-4,inactive
same,growth inhibition (GI),K562,inactive
same,growth inhibition (GI),MCF7,inactive
same,growth inhibition (GI),UO-31,inactive
